In patent US11207320B2, “Compositions and methods for cancer expressing PDE3A or SLFN12” (The Broad Institute, Inc., priority 2015, dated 2021):

System: 766 cancer cell lines
Assay: Large-scale cell-line viability measurements (766 cancer cell lines, 72 h, AUC)
Assay type: cell-based, human
Method: Cell lines were treated for 72 hours with concentrations ranging from 66.4 μM-2 nM in 2-fold step dilutions.
To characterize cellular sensitivity to DNMDP further, 766 genomically characterized cancer cell lines were screened for DMNDP sensitivity at concentrations ranging from 66.4 μM to 2 nM in 2-fold dilution steps for 72 hours. From these cell lines, 22 cell lines were categorized as sensitive with a robust Z-score lower than −4, which represented multiple lineages including multiple melanoma cell lines, amongst others (Table 1).
The sensitivity of […] cancer cell lines (CCLs) was measured drawn from 23 different lineages to DNMDP. Each cell line was plated in its preferred media in white opaque 1536-plates at a density of 500 cells/well. After incubating overnight, DNMDP was added by acoustic transfer at 16 concentrations ranging from 66.4 μM-2 nM in 2-fold steps in duplicate (Labcyte Echo 555, Labcyte Inc., Sunnyvale, Calif.). After 72 hours treatment, cellular ATP levels were measured as a surrogate for viability (CELLTITERGLO®, Promega Corporation, Madison, Wis.) according to manufacturer's protocols using a ViewLux Microplate Imager (PerkinElmer, Waltham, Mass.) and normalized to background (media-only) and vehicle (DMSO)-treated control wells.
Concentration response curves were fit using nonlinear fits to 2- or 3-parameter sigmoid functions through all 16 concentrations with the low-concentration asymptote set to the DMSO-normalized value, and an optimal 8-point dose curve spanning the range of compound-sensitivity was identified. The area under the 8-point dose curve (AUC) was computed by numeric integration as a metric for sensitivity for further analysis. Similar sensitivity measurements have been obtained for a collection of 480 other compounds, enabling analyses that identify cell lines responding uniquely to DNMDP (see Broad Institute Cancer Therapeutics Response Portal, a dataset to identify comprehensively relationships between genetic and lineage features of human cancer cell lines and small-molecule sensitivities for complete list of compounds).

[1] = ALLSIL (HAEMATOPOIETIC AND LYMPHOID TISSUE), 72 hours
[2] = BICR6 (UPPER AERODIGESTIVE TRACT), 72 hours
[3] = DKMG (CENTRAL NERVOUS SYSTEM), 72 hours
[4] = DND41 (HAEMATOPOIETIC AND LYMPHOID TISSUE), 72 hours
[5] = EJM (HAEMATOPOIETIC AND LYMPHOID TISSUE), 72 hours
[6] = GB1 (CENTRAL NERVOUS SYSTEM), 72 hours
[7] = GOS3 (CENTRAL NERVOUS SYSTEM), 72 hours
[8] = GRANTA519 (HAEMATOPOIETIC AND LYMPHOID TISSUE), 72 hours
[9] = HEL9217 (HAEMATOPOIETIC AND LYMPHOID TISSUE), 72 hours
[10] = HUT78 (HAEMATOPOIETIC AND LYMPHOID TISSUE), 72 hours
[11] = KCL22 (HAEMATOPOIETIC AND LYMPHOID TISSUE), 72 hours
[12] = KMM1 (HAEMATOPOIETIC AND LYMPHOID TISSUE), 72 hours
[13] = KMS11 (HAEMATOPOIETIC AND LYMPHOID TISSUE), 72 hours
[14] = KMS12BM (HAEMATOPOIETIC AND LYMPHOID TISSUE), 72 hours
[15] = KMS20 (HAEMATOPOIETIC AND LYMPHOID TISSUE), 72 hours
[16] = KMS28BM (HAEMATOPOIETIC AND LYMPHOID TISSUE), 72 hours
[17] = KMS34 (HAEMATOPOIETIC AND LYMPHOID TISSUE), 72 hours
[18] = KO52 (HAEMATOPOIETIC AND LYMPHOID TISSUE), 72 hours
[19] = L540 (HAEMATOPOIETIC AND LYMPHOID TISSUE), 72 hours
[20] = L1236 (HAEMATOPOIETIC AND LYMPHOID TISSUE), 72 hours
[21] = LAMA84 (HAEMATOPOIETIC AND LYMPHOID TISSUE), 72 hours
[22] = LNCAPCLONEFGC (PROSTATE), 72 hours
[23] = LP1 (HAEMATOPOIETIC AND LYMPHOID TISSUE), 72 hours

In the case of `CCN(CC)c1ccc(C2=NNC(=O)CC2C)cc1[N+](=O)[O-]` (centres unmarked) [DNMDP, 6-(4-(diethylamino)-3-nitrophenyl)-5-methyl-4,5-dihydropyridazin-3(2H)-one], the “number of cell lines categorized as sensitive (robust Z-score lower than −4)” value (766 cell lines, 66.4 μM to 2 nM, 72 hours) is reported as 22 cell lines, the “share of cell lines with nanomolar efficacy” value (766 genomically-characterized cancer cell lines) is reported as “about 3%” and the “DNMDP AUC” value (A549 (LUNG), 72 hours) is reported as 5.9509. The “Robust Z-score” value (A549 (LUNG), 72 hours) was −0.7177, the “DNMDP AUC” value [1] was 5.8724 and the “Robust Z-score” value [1] was −0.8001. The “DNMDP AUC” value [2] was 5.8837, the “Robust Z-score” value [2] was −0.7882 and the “DNMDP AUC” value (BT549 (BREAST), 72 hours) was 5.9226. For the same compound, the “Robust Z-score” value (BT549 (BREAST), 72 hours) was −0.7474, the “DNMDP AUC” value (C32 (SKIN), 72 hours) was 6.1786 and the “Robust Z-score” value (C32 (SKIN), 72 hours) was −0.4787. For the same compound, the “DNMDP AUC” value (CAL54 (KIDNEY), 72 hours) was 6.1949, the “Robust Z-score” value (CAL54 (KIDNEY), 72 hours) was −0.4616 and the “DNMDP AUC” value (COLO668 (LUNG), 72 hours) was 5.9969. For the same compound, the “Robust Z-score” value (COLO668 (LUNG), 72 hours) was −0.6694, the “DNMDP AUC” value (COLO679 (SKIN), 72 hours) was 5.9634 and the “Robust Z-score” value (COLO679 (SKIN), 72 hours) was −0.7046. For the same compound, the “DNMDP AUC” value (COLO800 (SKIN), 72 hours) was 6.1272, the “Robust Z-score” value (COLO800 (SKIN), 72 hours) was −0.5326 and the “DNMDP AUC” value (CORL51 (LUNG), 72 hours) was 0.5944. The “Robust Z-score” value (CORL51 (LUNG), 72 hours) was −6.34, the “DNMDP AUC” value (COV362 (OVARY), 72 hours) was 5.6913 and the “Robust Z-score” value (COV362 (OVARY), 72 hours) was −0.9902. For the same compound, the “DNMDP AUC” value [3] was 1.7217, the “Robust Z-score” value [3] was −5.157 and the “DNMDP AUC” value (DMS53 (LUNG), 72 hours) was 6.2061. The “Robust Z-score” value (DMS53 (LUNG), 72 hours) was −0.4498, the “DNMDP AUC” value [4] was 6.1979 and the “Robust Z-score” value [4] was −0.4584. The “DNMDP AUC” value (DU145 (PROSTATE), 72 hours) was 5.7825, the “Robust Z-score” value (DU145 (PROSTATE), 72 hours) was −0.8945 and the “DNMDP AUC” value (DV90 (LUNG), 72 hours) was 6.1676. The “Robust Z-score” value (DV90 (LUNG), 72 hours) was −0.4902, the “DNMDP AUC” value (ECGI10 (OESOPHAGUS), 72 hours) was 6.2151 and the “Robust Z-score” value (ECGI10 (OESOPHAGUS), 72 hours) was −0.4404. The “DNMDP AUC” value [5] was 6.1782, the “Robust Z-score” value [5] was −0.4791 and the “DNMDP AUC” value (EPLC272H (LUNG), 72 hours) was 6.0469. The “Robust Z-score” value (EPLC272H (LUNG), 72 hours) was −0.6169, the “DNMDP AUC” value (G402 (SOFT TISSUE), 72 hours) was 6.0606 and the “Robust Z-score” value (G402 (SOFT TISSUE), 72 hours) was −0.6026. The “DNMDP AUC” value [6] was 1.8269, the “Robust Z-score” value [6] was −5.046 and the “DNMDP AUC” value [7] was 6.2076. For the same compound, the “Robust Z-score” value [7] was −0.4483, the “DNMDP AUC” value [8] was 5.8937 and the “Robust Z-score” value [8] was −0.7777. For the same compound, the “DNMDP AUC” value (GSU (STOMACH), 72 hours) was 6.1172, the “Robust Z-score” value (GSU (STOMACH), 72 hours) was −0.5431 and the “DNMDP AUC” value (HCC1395 (BREAST), 72 hours) was 5.9716. For the same compound, the “Robust Z-score” value (HCC1395 (BREAST), 72 hours) was −0.696, the “DNMDP AUC” value (HCC1419 (BREAST), 72 hours) was 5.7835 and the “Robust Z-score” value (HCC1419 (BREAST), 72 hours) was −0.8934. For the same compound, the “DNMDP AUC” value (HCC1428 (BREAST), 72 hours) was 5.9402, the “Robust Z-score” value (HCC1428 (BREAST), 72 hours) was −0.7289 and the “DNMDP AUC” value (HCC1500 (BREAST), 72 hours) was 5.9451. The “Robust Z-score” value (HCC1500 (BREAST), 72 hours) was −0.7238, the “DNMDP AUC” value [9] was 0.75 and the “Robust Z-score” value [9] was −6.177. The “DNMDP AUC” value (HS888T (BONE), 72 hours) was 5.8353, the “Robust Z-score” value (HS888T (BONE), 72 hours) was −0.839 and the “DNMDP AUC” value [10] was 1.5307. For the same compound, the “Robust Z-score” value [10] was −5.357, the “DNMDP AUC” value (IALM (LUNG), 72 hours) was 5.775 and the “Robust Z-score” value (IALM (LUNG), 72 hours) was −0.9023. For the same compound, the “DNMDP AUC” value (JHH4 (LIVER), 72 hours) was 5.71, the “Robust Z-score” value (JHH4 (LIVER), 72 hours) was −0.9706 and the “DNMDP AUC” value [11] was 5.9598. The “Robust Z-score” value [11] was −0.7084, the “DNMDP AUC” value [12] was 6.1723 and the “Robust Z-score” value [12] was −0.4853. For the same compound, the “DNMDP AUC” value [13] was 6.2008, the “Robust Z-score” value [13] was −0.4554 and the “DNMDP AUC” value [14] was 6.0135. For the same compound, the “Robust Z-score” value [14] was −0.652, the “DNMDP AUC” value [15] was 6.0542 and the “Robust Z-score” value [15] was −0.6093. For the same compound, the “DNMDP AUC” value [16] was 5.9369, the “Robust Z-score” value [16] was −0.7324 and the “DNMDP AUC” value [17] was 5.8799. The “Robust Z-score” value [17] was −0.7922, the “DNMDP AUC” value [18] was 6.2174 and the “Robust Z-score” value [18] was −0.438. For the same compound, the “DNMDP AUC” value (KYSE410 (OESOPHAGUS), 72 hours) was 6.0741, the “Robust Z-score” value (KYSE410 (OESOPHAGUS), 72 hours) was −0.5884 and the “DNMDP AUC” value [19] was 6.0807. For the same compound, the “Robust Z-score” value [19] was −0.5815, the “DNMDP AUC” value [20] was 6.0853 and the “Robust Z-score” value [20] was −0.5766. For the same compound, the “DNMDP AUC” value [21] was 5.8201, the “Robust Z-score” value [21] was −0.855 and the “DNMDP AUC” value (LMSU (STOMACH), 72 hours) was 6.0528. For the same compound, the “Robust Z-score” value (LMSU (STOMACH), 72 hours) was −0.6107, the “DNMDP AUC” value [22] was 5.7557 and the “Robust Z-score” value [22] was −0.9226. The “DNMDP AUC” value (LOUNH91 (LUNG), 72 hours) was 5.9793, the “Robust Z-score” value (LOUNH91 (LUNG), 72 hours) was −0.6879 and the “DNMDP AUC” value [23] was 6.1029. The “Robust Z-score” value [23] was −0.5582 and the “DNMDP AUC” value (LU99 (LUNG), 72 hours) was 5.8016.
